One experiment deals with T1, HDAC8 (Homo sapiens, UniProt Q9BY41).
T1 construct: purchased Abcam
T1 sequence (Q9BY41 1-377): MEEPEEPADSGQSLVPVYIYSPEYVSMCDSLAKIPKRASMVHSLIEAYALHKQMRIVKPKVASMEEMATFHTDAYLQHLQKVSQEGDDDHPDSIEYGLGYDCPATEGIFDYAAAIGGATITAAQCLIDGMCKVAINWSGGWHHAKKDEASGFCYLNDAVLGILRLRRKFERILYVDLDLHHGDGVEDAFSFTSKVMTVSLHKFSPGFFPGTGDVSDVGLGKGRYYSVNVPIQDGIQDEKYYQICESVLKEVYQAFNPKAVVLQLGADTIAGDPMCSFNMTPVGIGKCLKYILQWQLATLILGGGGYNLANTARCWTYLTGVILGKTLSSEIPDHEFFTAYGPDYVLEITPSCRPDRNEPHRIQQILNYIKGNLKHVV
Put plainly: In vitro HDAC8 inhibitory assay. Format: biochemical. To be noted: 90 min at 37°C. On the procedure: Inhibition of HDAC8 was determined in 96-well plates. […] The assessment of fluorescence intensity was executed at 390 nm and 460 nm via a microplate reader.

A further experiment concerns the target T2, MPS1 (Homo sapiens, UniProt P33981).
T2 construct: purchased Abcam
T2 sequence (P33981 1-857): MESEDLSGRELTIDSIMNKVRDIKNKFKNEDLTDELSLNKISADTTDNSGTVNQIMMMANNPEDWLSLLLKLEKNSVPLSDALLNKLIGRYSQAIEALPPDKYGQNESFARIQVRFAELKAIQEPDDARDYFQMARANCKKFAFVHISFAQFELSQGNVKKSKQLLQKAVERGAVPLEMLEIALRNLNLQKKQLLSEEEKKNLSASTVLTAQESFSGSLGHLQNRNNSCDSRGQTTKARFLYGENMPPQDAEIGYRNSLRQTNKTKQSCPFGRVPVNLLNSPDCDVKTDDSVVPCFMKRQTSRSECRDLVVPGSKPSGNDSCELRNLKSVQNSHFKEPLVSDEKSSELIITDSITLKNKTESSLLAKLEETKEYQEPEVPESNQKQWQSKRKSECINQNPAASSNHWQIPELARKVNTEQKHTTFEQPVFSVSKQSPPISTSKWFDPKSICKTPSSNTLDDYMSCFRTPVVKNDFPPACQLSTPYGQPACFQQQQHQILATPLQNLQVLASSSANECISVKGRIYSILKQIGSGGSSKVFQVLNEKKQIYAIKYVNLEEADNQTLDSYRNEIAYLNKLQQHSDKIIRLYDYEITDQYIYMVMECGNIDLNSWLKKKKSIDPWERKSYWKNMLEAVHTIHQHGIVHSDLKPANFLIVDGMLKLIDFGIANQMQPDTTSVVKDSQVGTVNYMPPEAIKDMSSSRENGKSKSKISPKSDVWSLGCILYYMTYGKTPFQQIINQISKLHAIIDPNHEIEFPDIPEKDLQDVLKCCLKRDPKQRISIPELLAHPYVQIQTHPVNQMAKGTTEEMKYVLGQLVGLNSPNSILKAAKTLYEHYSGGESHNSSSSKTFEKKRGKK
Kind of experiment: In vitro MPS1 inhibitory assay. It is filed as biochemical. Here is the method: The methodology is as previously described ([Naud et al., 2013]). In brief, the experiment was conducted using 384-well black low-volume plates, which were loaded with MPS1 (concentration range of 3–12.5 nM), 5 μM fluorescence-labelled peptide (sequence: 5FAM-[…]-CONH2), 10 μM ATP, 1% (v/v) DMSO or the test compound (concentrations in 1% (v/v) DMSO ranged from 0.25 to 100 μM), and assay buffer. […]. The plate was read on a Caliper EZ reader II (PerkinElmer Life Sciences, Waltham, MA, United States). […]

For a further experiment, the system named is HepG2 liver cancer cells. Kind of experiment: MTT cytotoxicity assay, HepG2. Format: cell-based. To be noted: Homo sapiens, 72 h cell treatment. Here is the method:
The cells (5 × 10^4 cells/well) were incubated overnight in 96-well plates. A series of solutions containing varying concentrations of inhibitors were added and incubated at 37°C for a period of 72 h. Subsequently, the culture medium was removed, followed by a subsequent incubation of the cells with a 5 mg/mL MTT stock solution for 4 h. After centrifugation, the precipitate was solubilized in DMSO and gently shaken for 15 min. Finally, the absorbance measurement at 570 nm was completed using a microplate reader. Data analysis was performed using GraphPad Prism 6.0 software.
Background: Formazan colour is commonly taken as a measure of viable cells.

Take `CC1=CC(c2cc3cnc(Nc4ccc(-c5cccc[n+]5/C=C/C(=O)NO)cc4Cl)cc3n2C(=O)OC(F)(F)F)C=N1` (stereo not shown) [MPH-1]: the IC50 (in general, the concentration needed to halve the response being measured) came to 17.5 ± 2.32 nM against HDAC8, 9.38 ± 0.41 nM on MPS1 and 0.47 µM in the experiment on HepG2 liver cancer cells.

For the compound `CC(C)(C)OC(=O)n1c(-c2cn[nH]c2C(F)F)cc2cnc(Nc3ccc(-c4cnc(C(F)(F)F)n4/C=C/C(=O)NO)cc3Cl)cc21` [MPH-6], the 50% inhibitory concentration (IC50) at HDAC8 was 16.6 ± 2.06 nM; against MPS1, 10.8 ± 0.69 nM; in the experiment on HepG2 liver cancer cells, 0.53 µM.

On to `O=C(/C=C/c1cccc(S(=O)(=O)Nc2ccccc2)c1)NO` [Belinostat, reference compound], for which the “MPS1 (IC50, nM)” value at MPS1 (10 μM ATP, 60 min, room temperature) is recorded as “No inhibition”.

For the compound `COc1cc(-c2cnc(C)n2/C=C/C(=O)NO)ccc1Nc1cc2c(cn1)cc(C1C=CN=C1)n2C(=O)OC(F)(F)F` (stereo not shown) [MPH-4], the IC50 worked out at 13.5 ± 0.61 nM at HDAC8, 11.7 ± 0.95 nM on MPS1 and 0.41 µM with HepG2 liver cancer cells.

Turning to `COc1cc(-c2cncn2/C=C/C(=O)NO)ccc1Nc1cc2c(cn1)cc(C1C=CN=C1)n2C(=O)OC(C)(C)C` (stereo not shown) [MPH-2], the IC50 was determined as 8.15 ± 0.58 nM at HDAC8, 7.6 ± 0.35 nM against MPS1 and 0.32 µM in the experiment with HepG2 liver cancer cells.

With `Cc1ncc(-c2ccc(Nc3cc4c(cn3)cc(C3C=NC(C(F)(F)F)=C3)n4C(=O)OC(C)(C)C)cc2)n1/C=C/C(=O)NO` (stereo not shown) [MPH-3], the results for the 50% inhibitory concentration (IC50) against HDAC8, against MPS1 and in the experiment on HepG2 liver cancer cells were 15.2 ± 1.94 nM, 13.2 ± 0.82 nM and 0.55 µM, respectively.

The values above are taken from article PMC11439681, “The identification of potent dual-target monopolar spindle 1 (MPS1) and histone deacetylase 8 (HDAC8) inhibitors through pharmacophore modeling, molecular docking, molecular dynamics simulations, and biological evaluation” (Frontiers in Pharmacology, 2024).
